Experimental data taken from PubChem BioAssay (NCI).
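Values below derive from 48-hour exposures of cells grown in 96-well plates, with endpoints linearly interpolated between the two concentrations bracketing the appropriate inhibition level. TGI: total growth inhibition.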

Experiments:
Assay in all cases: DTP human tumour cell line panel, 48 h
786-0 renal = test system: 786-0 renal
A498 renal = test system: A498 renal
A549 NSCLC = test system: A549 NSCLC
ACHN renal = test system: ACHN renal
CCRF-CEM leukemia = test system: CCRF-CEM leukemia
COLO 205 colon = test system: COLO 205 colon
DLD-1 colon = test system: DLD-1 colon
DMS 114 small cell lung = test system: DMS 114 small cell lung
DMS 273 small cell lung = test system: DMS 273 small cell lung
EKVX NSCLC = test system: EKVX NSCLC
HCC-2998 colon = test system: HCC-2998 colon
HCT-116 colon = test system: HCT-116 colon
HL-60(TB) leukemia = test system: HL-60(TB) leukemia
HOP-18 NSCLC = test system: HOP-18 NSCLC
HOP-62 NSCLC = test system: HOP-62 NSCLC
HOP-92 NSCLC = test system: HOP-92 NSCLC
HT29 colon = test system: HT29 colon
IGROV1 ovarian = test system: IGROV1 ovarian
K-562 leukemia = test system: K-562 leukemia
KM12 colon = test system: KM12 colon
KM20L2 colon = test system: KM20L2 colon
LOX IMVI melanoma = test system: LOX IMVI melanoma
LXFL 529 NSCLC = test system: LXFL 529 NSCLC
M14 melanoma = test system: M14 melanoma
M19-MEL melanoma = test system: M19-MEL melanoma
MALME-3M melanoma = test system: MALME-3M melanoma
MOLT-4 leukemia = test system: MOLT-4 leukemia
NCI-H226 lung = test system: NCI-H226 lung
NCI-H23 lung = test system: NCI-H23 lung
NCI-H522 lung = test system: NCI-H522 lung
OVCAR-3 ovarian = test system: OVCAR-3 ovarian
OVCAR-4 ovarian = test system: OVCAR-4 ovarian
OVCAR-5 ovarian = test system: OVCAR-5 ovarian
OVCAR-8 ovarian = test system: OVCAR-8 ovarian
RXF 393 renal = test system: RXF 393 renal
SF-268 CNS = test system: SF-268 CNS
SF-295 CNS = test system: SF-295 CNS
SF-539 CNS = test system: SF-539 CNS
SK-MEL-28 melanoma = test system: SK-MEL-28 melanoma
SK-MEL-5 melanoma = test system: SK-MEL-5 melanoma
SK-OV-3 ovarian = test system: SK-OV-3 ovarian
SN12C renal = test system: SN12C renal
SNB-19 CNS = test system: SNB-19 CNS
SNB-75 CNS = test system: SNB-75 CNS
SR leukemia = test system: SR leukemia
SW-620 colon = test system: SW-620 colon
TK-10 renal = test system: TK-10 renal
U251 CNS = test system: U251 CNS
UACC-257 melanoma = test system: UACC-257 melanoma
UACC-62 melanoma = test system: UACC-62 melanoma
UO-31 renal = test system: UO-31 renal
XF 498 CNS = test system: XF 498 CNS

Measured: TGI

CC(=O)OCC1OC(Sc2ccccn2)C=CC1OC(C)=O (configuration not stated)
> 100 µM: all assays above
